Laboratory results: patent US20240299285A1, “PERSONAL CARE COMPOSITION” (The Procter & Gamble Company, priority 2023, published 2024)

Test: Solubility Method (cooling/heating cycles, % transmittance, visual precipitate check)
Type: physicochemical
Conditions: SLT:SMLT 10.5:1, co-surfactant 1 % or 4 %, pH 5.2
Text: This method can be used to determine the solubility characteristics of a material (e.g., an acyl taurate) in a composition. The method uses heating and cooling cycles to simulate environmental conditions commonly experienced by a personal care product and accelerate the processes that can lead to product instability.
The test composition (e.g., an aqueous surfactant composition consisting of an acyl taurate surfactant and an N-alkyl acyl taurate surfactant and/or a co-surfactant, and/or a cationic polymer and water) is placed in a closed container to prevent evaporation and heated at 40° C. for a minimum of 30 minutes or until the composition is visually clear & free of precipitates. One mL of the test solution is added to a Crystal-16 vial, closed with a basic cap and placed into a Technobis Crystallization Systems Crystal16® Model 2.2 or equivalent. The % transmittance readings are set to record 1 measurement every 300 seconds. The vials are cooled to 5° C. at a rate of 0.25° C./min and held at 5° C. for 8 hours (cooling cycle). The vials are then heated to 20° C. at a rate of 0.25° C./min and held at 20° C. for 8 hours (heating cycle). […] When the final % T recorded at the end of the heating cycle is greater than or equal to 90% and no precipitate is observed the sample is considered soluble.

effect of co-surfactant on acyl taurate (SLT) solubility	Substance
did not provide the desired solubility	sodium lauroamphoacetate
did not provide the desired solubility	cocamidopropyl hydroxysultaine [CAPHS]
